Values joined by “and” are separate entries in the source; they are usually repeats but may differ in a detail not shown here. Equal values may be shown once.
Tests used:
MDCK-MDR1 monolayers = experiment: BBB permeability, bidirectional transport through MDCK-MDR1 monolayers; conditions: 10 μM test article, single determination
human OX1 receptor = biological target: T1, human OX1 receptor (Homo sapiens, UniProt O43613); experiment: Calcium mobilization Ke assay, OX1; format: cell-based
T1 sequence (O43613 1-425): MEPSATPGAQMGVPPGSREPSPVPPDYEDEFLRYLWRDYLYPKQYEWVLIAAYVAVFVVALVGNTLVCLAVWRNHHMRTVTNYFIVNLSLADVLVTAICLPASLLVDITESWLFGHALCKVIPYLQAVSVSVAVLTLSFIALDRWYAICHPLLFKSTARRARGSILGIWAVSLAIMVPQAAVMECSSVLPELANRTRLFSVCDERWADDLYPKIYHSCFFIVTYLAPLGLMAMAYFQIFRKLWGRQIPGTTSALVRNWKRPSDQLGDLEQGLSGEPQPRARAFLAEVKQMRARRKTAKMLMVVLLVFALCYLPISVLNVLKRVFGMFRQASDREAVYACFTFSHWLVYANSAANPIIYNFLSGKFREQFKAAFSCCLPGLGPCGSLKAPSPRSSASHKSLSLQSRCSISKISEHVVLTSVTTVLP

P-glycoprotein (MDR1) = experiment: BBB permeability, bidirectional transport through MDCK-MDR1 monolayers; conditions: dog, MDCK-MDR1, pH 7.4
[1] = Kinetic solubility in PBS pH 7.4; format: physicochemical; conditions: pH 7.4, aqueous buffer, kinetic from dmso stock
human OX2 receptor = biological target: T2, human OX2 receptor (Homo sapiens, UniProt O43614); experiment: Calcium mobilization Ke assay, OX2; format: cell-based
T2 sequence (O43614 1-444): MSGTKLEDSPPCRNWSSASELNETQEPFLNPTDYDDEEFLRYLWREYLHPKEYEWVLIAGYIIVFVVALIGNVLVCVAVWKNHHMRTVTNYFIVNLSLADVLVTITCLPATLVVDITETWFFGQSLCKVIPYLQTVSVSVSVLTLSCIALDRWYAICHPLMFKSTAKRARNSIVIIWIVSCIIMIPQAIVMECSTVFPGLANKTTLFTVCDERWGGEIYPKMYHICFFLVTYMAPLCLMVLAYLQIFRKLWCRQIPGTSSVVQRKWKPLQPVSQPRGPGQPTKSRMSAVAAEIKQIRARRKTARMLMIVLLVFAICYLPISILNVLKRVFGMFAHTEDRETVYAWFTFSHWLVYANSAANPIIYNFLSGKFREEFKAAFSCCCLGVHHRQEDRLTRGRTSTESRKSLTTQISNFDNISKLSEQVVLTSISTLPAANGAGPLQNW

SMILES	Papp A-to-B (MDCK-MDR1 monolayers; MDCK-MDR1, apical-to-basolateral)	Papp B-to-A (MDCK-MDR1 monolayers; MDCK-MDR1, basolateral-to-apical)	Kd (human OX1 receptor) [nM]	selectivity over OX2 (human OX1 receptor; OX1 over OX2, calcium mobilization assays)	OX2/OX1 (human OX1 receptor; ratio of Ke values OX2/OX1)	Papp A→B at 90 min, 10 μM (P-glycoprotein (MDR1)) [×10⁻⁶ cm/s]	Papp B→A at 90 min, 10 μM (P-glycoprotein (MDR1)) [×10⁻⁶ cm/s]	efflux ratio at 90 min, 10 μM (P-glycoprotein (MDR1))	solubility kinetic at 2 h [1] [µM]	Kd (human OX2 receptor) [nM]
COc1ccc(CC2c3cc(OCC(F)(F)F)c(OC)cc3CCN2CC(=O)NCc2cccnc2)cc1OC (stereo not shown) [Compound 5, reference compound]	12.2 10^−6 cm/sec	36.2 10^−6 cm/sec	–	–	–	–	–	–	–	–
COc1ccc(CC2c3cc(N(C)C)c(OC)cc3CCN2CC(=O)NCc2cccnc2)cc1N(C)C (stereo not shown) [Compound 44, 2-[7-(Dimethylamino)-1-{[3-(dimethylamino)-4-methoxyphenyl]methyl}-6-methoxy-1,2,3,4-tetrahydroisoquinolin-2-yl]-N-(pyridin-3-ylmethyl)acetamide]	–	–	5.7 ± 1	> 1,760 fold and > 1,000 fold	>1,760	14.7	47.8	3.3	> 200	> 10000

From article PMC6002953 (ACS chemical neuroscience, 2017)
